Results taken from patent US20080274892A1, “Novel Haloalkylsulfonanilide Derivative, Herbicide, and Method of Use Thereof” (priority 2005, published 2008).

What was measured:
bulrush [1] = assay: Test Example 1: herbicidal efficacy on rice paddy weeds pre-emergence; format: in vivo, Scirpus juncoides; details: 21 days
false pimpernel [2] = assay: as above; format: in vivo, Lindernia pyxidaria; details: 21 days
barnyard glass = assay: Test Example 2: herbicidal efficacy on rice paddy weeds post-emergence; format: in vivo, Echinochloa crus-galli; details: post-emergence, one leaf stage, 21 days after treatment
Method in brief: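 Plastic pots of 75 cm^2 were filled with clay loam soil and sown with barnyard glass and bulrush seeds, then topped with 75 cm^3 soil containing false pimpernel seeds. The pots were flooded to 5 cm water depth and held in a hot house. Twenty-one days after treatment, herbicidal efficacy was graded against an untreated control.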

bulrush [3] = assay: as above; format: in vivo, Scirpus juncoides; details: post-emergence, one leaf stage, 21 days after treatment
false pimpernel [4] = assay: as above; format: in vivo, Lindernia pyxidaria; details: post-emergence, one leaf stage, 21 days after treatment
[5] = test system: paddy rice plant (cultivar: Nihonbare); assay: Test Example 3: phytotoxicity test for transplanted paddy rice plant; format: in vivo; details: transplanted rice, 21 days after treatment
Method in brief: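 Clay loam soil was placed in a 75 cm^2 plastic pot and flooded to a water depth of 5 cm. Two Nihonbare paddy rice plants at the two-leaf stage were transplanted 1 cm deep and grown in a hot house. After treatment, pots stayed in the hot house for 21 days, and phytotoxicity was then graded against an untreated control.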

bulrush [6] = assay: Test Example 4: low dosage test for rice paddy weeds; format: in vivo, Scirpus juncoides; details: 300 g/ha as an active ingredient; plants treated at the one leaf stage; 21 days after treatment; vs untreated control
Method in brief: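 Bulrush sown in clay loam pots, flooded to 5 cm water in a hot house, treated at the one-leaf stage with formulated compound at 300 g/ha. Efficacy scored 0–4 against untreated control 21 days after treatment (4 = 90–100%, 0 = 0% inhibition).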

[7] = test system: transplanted paddy rice plant and Bulrush; assay: Test Example 5: selectivity between transplanted paddy rice plant and weeds; format: in vivo; details: (highest dosage with no phytotoxicity to paddy rice)/(lowest dosage with effective level 4 on Bulrush); rice 3000-100 g/ha, Bulrush 300-10 g/ha; 21 days
Method in brief: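 Transplanted paddy rice was treated at 3000, 1000, 300 and 100 g/ha active ingredient for phytotoxicity, and post-emergence bulrush at 300, 100, 30 and 10 g/ha. Plants were kept in a hothouse for 21 days. Growth inhibition versus untreated control was scored 0–4 (0%, 1–39%, 40–69%, 70–89%, 90–100%).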

[8] = dosage 1000 g/ha, treated 5 days after transplantation

Row | Structure (SMILES) | Bulrush pre (herbicidal efficacy grade) (bulrush [1]; dosage 1000 g/ha) | False pimpernel pre (herbicidal efficacy grade) (false pimpernel [2]; dosage 1000 g/ha) | Burnyard grass post (herbicidal efficacy grade) (barnyard glass; dosage 1000 g/ha) | Bulrush post (herbicidal efficacy grade) (bulrush [3]; dosage 1000 g/ha) | False pimpernel post (herbicidal efficacy grade) (false pimpernel [4]; dosage 1000 g/ha) | Phytotoxicity to paddy rice [5, 8] | Herbicide effect to Bulrush (bulrush [6]) | Selective Index [7] | Bulrush pre (herbicidal efficacy grade) (bulrush [1]; dosage 100 g/ha) | False pimpernel pre (herbicidal efficacy grade) (false pimpernel [2]; dosage 100 g/ha) | Burnyard grass post (herbicidal efficacy grade) (barnyard glass; dosage 100 g/ha) | Bulrush post (herbicidal efficacy grade) (bulrush [3]; dosage 100 g/ha) | False pimpernel post (herbicidal efficacy grade) (false pimpernel [4]; dosage 100 g/ha) | Phytotoxicity to paddy rice ([5]; dosage 100 g/ha as printed in the table line)
1 | CCCCCCOC(=O)N(c1ccccc1CN1CC(C)(C)OC1=O)S(=O)(=O)C(F)(F)F [1-93] | 4 (90%-100% of herbicidal efficacy or phytotoxicity) | 4 (90%-100% of herbicidal efficacy or phytotoxicity) | 4 (90%-100% of herbicidal efficacy or phytotoxicity) | 4 (90%-100% of herbicidal efficacy or phytotoxicity) | 4 (90%-100% of herbicidal efficacy or phytotoxicity) | 1 (1%-39% of herbicidal efficacy or phytotoxicity) | 4 (90%-100% of herbicidal efficacy or phytotoxicity) | ≧30 |  |  |  |  |  | 
2 | CCCCCCCOC(=O)N(c1ccccc1CN1CC(C)(C)OC1=O)S(=O)(=O)C(F)(F)F [1-94] | 4 (90%-100% of herbicidal efficacy or phytotoxicity) | 4 (90%-100% of herbicidal efficacy or phytotoxicity) | 4 (90%-100% of herbicidal efficacy or phytotoxicity) | 4 (90%-100% of herbicidal efficacy or phytotoxicity) | 4 (90%-100% of herbicidal efficacy or phytotoxicity) | 1 (1%-39% of herbicidal efficacy or phytotoxicity) | 4 (90%-100% of herbicidal efficacy or phytotoxicity) | ≧30 |  |  |  |  |  | 
3 | CC(C)COC(=O)N(c1ccccc1CN1C(=O)OC(C)(C)C1C)S(=O)(=O)C(F)(F)F (centres unmarked) [1-95] | 4 (90%-100% of herbicidal efficacy or phytotoxicity) | 4 (90%-100% of herbicidal efficacy or phytotoxicity) | 4 (90%-100% of herbicidal efficacy or phytotoxicity) | 4 (90%-100% of herbicidal efficacy or phytotoxicity) | 4 (90%-100% of herbicidal efficacy or phytotoxicity) | 3 (70%-89% of herbicidal efficacy or phytotoxicity) | 4 (90%-100% of herbicidal efficacy or phytotoxicity) | 30 |  |  |  |  |  | 
4 | CCOC(=O)N(c1ccccc1CN1CC(CC)(CC)OC1=O)S(=O)(=O)C(F)(F)F [1-97] | 4 (90%-100% of herbicidal efficacy or phytotoxicity) | 4 (90%-100% of herbicidal efficacy or phytotoxicity) | 4 (90%-100% of herbicidal efficacy or phytotoxicity) | 4 (90%-100% of herbicidal efficacy or phytotoxicity) | 4 (90%-100% of herbicidal efficacy or phytotoxicity) | 1 (1%-39% of herbicidal efficacy or phytotoxicity) | 4 (90%-100% of herbicidal efficacy or phytotoxicity) | 30 |  |  |  |  |  | 
5 | CCCOC(=O)N(c1ccccc1CN1CC(CC)(CC)OC1=O)S(=O)(=O)C(F)(F)F [1-98] | 4 (90%-100% of herbicidal efficacy or phytotoxicity) | 4 (90%-100% of herbicidal efficacy or phytotoxicity) | 4 (90%-100% of herbicidal efficacy or phytotoxicity) | 4 (90%-100% of herbicidal efficacy or phytotoxicity) | 4 (90%-100% of herbicidal efficacy or phytotoxicity) | 1 (1%-39% of herbicidal efficacy or phytotoxicity) | 4 (90%-100% of herbicidal efficacy or phytotoxicity) | 10 |  |  |  |  |  | 
6 | CCCCOC(=O)N(c1ccccc1CN1CC(CC)(CC)OC1=O)S(=O)(=O)C(F)(F)F [1-99] | 4 (90%-100% of herbicidal efficacy or phytotoxicity) | 4 (90%-100% of herbicidal efficacy or phytotoxicity) | 4 (90%-100% of herbicidal efficacy or phytotoxicity) | 4 (90%-100% of herbicidal efficacy or phytotoxicity) | 4 (90%-100% of herbicidal efficacy or phytotoxicity) | 1 (1%-39% of herbicidal efficacy or phytotoxicity) | 4 (90%-100% of herbicidal efficacy or phytotoxicity) | 10 |  |  |  |  |  | 
7 | CCC1(CC)CN(Cc2ccccc2N(C(=O)OCC(C)(C)C)S(=O)(=O)C(F)(F)F)C(=O)O1 [1-100] | 4 (90%-100% of herbicidal efficacy or phytotoxicity) | 4 (90%-100% of herbicidal efficacy or phytotoxicity) | 4 (90%-100% of herbicidal efficacy or phytotoxicity) | 4 (90%-100% of herbicidal efficacy or phytotoxicity) | 4 (90%-100% of herbicidal efficacy or phytotoxicity) | 1 (1%-39% of herbicidal efficacy or phytotoxicity) | 4 (90%-100% of herbicidal efficacy or phytotoxicity) | 10 |  |  |  |  |  | 
8 | CCCCC1(C)CN(Cc2ccccc2N(C(=O)OCC)S(=O)(=O)C(F)(F)F)C(=O)O1 (centres unmarked) [1-129] |  |  |  |  |  |  | 4 (90%-100% of herbicidal efficacy or phytotoxicity) | 10 | 2 (40%-69% of herbicidal efficacy or phytotoxicity) | 4 (90%-100% of herbicidal efficacy or phytotoxicity) | 3 (70%-89% of herbicidal efficacy or phytotoxicity) | 4 (90%-100% of herbicidal efficacy or phytotoxicity) | 3 (70%-89% of herbicidal efficacy or phytotoxicity) | 1 (1%-39% of herbicidal efficacy or phytotoxicity)
9 | CCCC1(CC)CN(Cc2ccccc2NS(=O)(=O)C(F)(F)F)C(=O)O1 (centres unmarked) [1-130] | 4 (90%-100% of herbicidal efficacy or phytotoxicity) | 4 (90%-100% of herbicidal efficacy or phytotoxicity) | 4 (90%-100% of herbicidal efficacy or phytotoxicity) | 4 (90%-100% of herbicidal efficacy or phytotoxicity) | 4 (90%-100% of herbicidal efficacy or phytotoxicity) | 1 (1%-39% of herbicidal efficacy or phytotoxicity) | 4 (90%-100% of herbicidal efficacy or phytotoxicity) | 10 |  |  |  |  |  | 
10 | CCC1(C(C)C)CN(Cc2ccccc2NS(=O)(=O)C(F)(F)F)C(=O)O1 (centres unmarked) [1-131] | 4 (90%-100% of herbicidal efficacy or phytotoxicity) | 4 (90%-100% of herbicidal efficacy or phytotoxicity) | 4 (90%-100% of herbicidal efficacy or phytotoxicity) | 4 (90%-100% of herbicidal efficacy or phytotoxicity) | 4 (90%-100% of herbicidal efficacy or phytotoxicity) | 2 (40%-69% of herbicidal efficacy or phytotoxicity) | 4 (90%-100% of herbicidal efficacy or phytotoxicity) | 10 |  |  |  |  |  | 
